The results in this text go back to ChEMBL document CHEMBL5036311, “X-ray Crystal Structure-Guided Design and Optimization of 7H-Pyrrolo[2,3-d]pyrimidine-5-carbonitrile Scaffold as a Potent and Orally Active Monopolar Spindle 1 Inhibitor” (J Med Chem, 2021).

The target in data set [1] is T1, Dual specificity protein kinase TTK (Homo sapiens) (UniProt P33981).
T1 sequence (whole entry): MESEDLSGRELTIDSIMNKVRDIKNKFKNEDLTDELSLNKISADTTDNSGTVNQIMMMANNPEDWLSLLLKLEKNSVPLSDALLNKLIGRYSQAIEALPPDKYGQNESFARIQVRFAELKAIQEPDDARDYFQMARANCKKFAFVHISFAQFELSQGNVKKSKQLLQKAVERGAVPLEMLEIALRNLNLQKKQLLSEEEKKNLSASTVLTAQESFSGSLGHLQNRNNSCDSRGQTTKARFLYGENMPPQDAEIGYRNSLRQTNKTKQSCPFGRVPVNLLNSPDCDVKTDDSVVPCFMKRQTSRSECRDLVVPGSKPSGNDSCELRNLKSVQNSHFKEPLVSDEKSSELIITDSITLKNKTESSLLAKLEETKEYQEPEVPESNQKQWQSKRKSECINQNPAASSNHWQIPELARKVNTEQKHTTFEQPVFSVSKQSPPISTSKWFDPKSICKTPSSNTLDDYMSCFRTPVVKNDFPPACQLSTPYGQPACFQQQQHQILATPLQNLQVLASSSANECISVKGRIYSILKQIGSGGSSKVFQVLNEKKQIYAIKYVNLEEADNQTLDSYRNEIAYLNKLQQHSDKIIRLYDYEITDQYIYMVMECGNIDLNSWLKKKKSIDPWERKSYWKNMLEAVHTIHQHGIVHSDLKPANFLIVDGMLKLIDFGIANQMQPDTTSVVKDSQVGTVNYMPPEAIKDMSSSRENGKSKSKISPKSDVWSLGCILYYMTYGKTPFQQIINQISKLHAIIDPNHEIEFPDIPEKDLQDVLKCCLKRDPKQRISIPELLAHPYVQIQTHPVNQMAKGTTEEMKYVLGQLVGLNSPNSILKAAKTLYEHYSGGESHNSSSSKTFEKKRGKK
The data set is described as follows: Binding affinity to human hexa-His tagged MPS1 (515 to 795 residue) expressed in Escherichia coli BL2I-DE3 cells assessed as change in melting temperature by thermal shift assay.

The subject of data set [2] is MDA-MB-231. The data set is described as follows: Growth inhibition of human MDA-MB-231 cells measured after 5 days by CellTiter-Glo assay. Type of data set: functional. To be noted: time 5 day; for GI50: Homo sapiens, MDA-MB-231, 120 h. For orientation: In ATP-based viability assays light output follows the ATP content of the culture.
A short description of data set [3]: Metabolic stability in human liver microsomes assessed as compound remaining after 30 mins. In kind it is ADME, Microsome. As to conditions: read-out: Stability. For orientation: Liver microsomes are a subcellular fraction often used to study metabolism.
The nature of data set [4]: AUC in ICR mouse at 10 mg/kg, po. In kind it is ADME, organism-based. Further details: dose 10 mg/kg. To be noted: in vivo.
Data set [5] addresses T2, Dual specificity protein kinase TTK (Homo sapiens, UniProt P33981).
T2 sequence (P33981 whole entry): T1 sequence (whole entry)
Nature of the data set: Inhibition of human hexa-His tagged MPS1 (515 to 795 residue) expressed in Escherichia coli BL2I-DE3 cells incubated for 4 hrs in presence of ATP by ADP-glo luminescence assay. (ADP-Glo first removes unused ATP, then detects ADP through luciferase.)

A short description of data set [6]: Cmax in ICR mouse at 10 mg/kg, po. Type of data set: ADME, organism-based. Further details: route oral, dose 10 mg/kg. To be noted: in vivo.
Data set [7] is described as follows: Oral bioavailability in ICR mouse at 10 mg/kg. To be noted: in vivo. In kind it is ADME, organism-based.
Data set [8] in a line: Half life in ICR mouse at 10 mg/kg, po. To be noted: in vivo. In kind it is ADME, organism-based.
A short description of data set [9]: Toxicity in athymic mouse xenografted with human MDA-MB-231 cells assessed as change in intestine morphology at 2 mg/kg administered daily and measured twice a week. To be noted: in vivo. Type of data set: organism-based.
In data set [10] the target is T1, Dual specificity protein kinase TTK (Homo sapiens). The data set is described as follows: Inhibition of human […] assessed as reduction in histone H3 phosphorylation at 0.1 to 10 uM by Western blot analysis. To be noted: dose 0.1-10 µM.
Data set [11] deals with MDA-MB-231. Nature of the data set: Antitumor activity against human MDA-MB-231 cells xenografted in athymic mouse model assessed as tumor growth inhibition at 2 mg/kg administered daily and measured twice a week. Type of data set: functional. To be noted: read-out: TGI.
Data set [12] is described as follows: Toxicity in athymic mouse xenografted with human MDA-MB-231 cells assessed as effect on body weight at 2 mg/kg administered daily and measured twice a week. In kind it is organism-based. To be noted: in vivo.
Data set [13] addresses T1, Dual specificity protein kinase TTK (Homo sapiens). Nature of the data set: Inhibition of human […] assessed as reduction in MPS1 autophosphorylation at 0.1 to 10 uM by Western blot analysis. As to conditions: dose 0.1-10 µM.
Data set [14] can be described thus: Toxicity in athymic mouse xenografted with human MDA-MB-231 cells assessed as body weight gain at 2 mg/kg administered daily and measured twice a week (reference value: 15.5 %). In kind it is organism-based. As to conditions: in vivo.

Activity calls are given as the source filed them.

In general, ΔTm refers to the shift of the melting midpoint relative to a reference. For orientation: GI50 means the concentration that inhibits growth by half. As for `CCCCNc1nc(Nc2ccc(N3CCCC3=O)cc2OC)nc2[nH]cc(C#N)c12`, the ΔTm in data set [1] was 11.2 °C. In data set [2], this compound registered a GI50 of 18 nM and a GI90 of 267 nM.

As for `COc1cc(N2CCOCC2=O)ccc1Nc1nc(NC2CCCCC2)c2c(C#N)c[nH]c2n1`, the ΔTm in data set [1] is 17.2 °C. In [2], this compound came in with a GI50 of 10 nM and a GI90 of more than 1000 nM.

As for `N#Cc1c[nH]c2nc(Nc3ccc(N4CCCC4=O)cc3)nc(NC3CCCCC3)c12`, the ΔTm in data set [1] was determined as 17.2 °C. Moreover, in data set [2], it took 46 nM to inhibit growth by half (GI50) and the GI90 was 67 nM.

On to `N#Cc1c[nH]c2nc(Nc3ccc(N4CCCC4=O)cn3)nc(NC3CCCCC3)c12`, for which the ΔTm in [1] stood at 13.8 °C. In [2], this compound had a GI50 of 364 nM and a GI90 of 668 nM.

As for `COc1cc(N2CCCC2=O)ccc1Nc1nc(NC2CCC2)c2c(C#N)c[nH]c2n1`, the ΔTm in data set [1] was determined as 14.3 °C. In data set [2], the GI50 is more than 1000 nM and the GI90 is on record as more than 1000 nM.

As to `CCOc1cc(N2CCCC2=O)ccc1Nc1nc(NC2CCCCC2)c2c(C#N)c[nH]c2n1`, in [1], the ΔTm is 16.9 °C. In data set [2], this compound showed a GI50 of 108 nM and a GI90 of 478 nM.

Take `COCC(C)(C)Nc1nc(Nc2ccc(N3CCCC3=O)cc2OC)nc2[nH]cc(C#N)c12`: the shift in melting temperature (ΔTm) in data set [1] came out at 15.1 °C. In data set [2], this compound came in with a GI50 of 916 nM and a GI90 of more than 1000 nM.

Consider `Cc1cc(N2CCOCC2)ccc1Nc1nc(NC2CCCCC2)c2c(Cl)c[nH]c2n1`, for which the ΔTm in [1] stood at 18.1 °C. In data set [2], this compound yielded a concentration for 50% growth inhibition (GI50) of 129 nM and a GI90 of more than 1000 nM.

With `COc1cc(N2CCCC2=O)ccc1Nc1nc(NC(C)C)c2c(C#N)c[nH]c2n1`, the ΔTm in data set [1] came out at 14.2 °C. Also, in data set [2], halving of growth (GI50) required 10 nM and the GI90 is recorded as 481 nM.

Take `CC[C@H](C)Nc1nc(Nc2ccc(N3CCCC3=O)cc2OC)nc2[nH]cc(C#N)c12`: the ΔTm in [1] is 15.1 °C. For the same compound, in [2], the GI50 was 96 nM and the GI90 came to 328 nM.

For `COc1cc(N2CCCC2=O)ccc1Nc1nc(NCC(C)(C)C)c2c(C#N)c[nH]c2n1`, the ΔTm in data set [1] is 14.4 °C. For the same compound, in data set [2], the GI50 amounted to 149 nM and the GI90 is on record as more than 1000 nM.

As for `Cn1cc(Nc2nc(NC3CCCCC3)c3c(C#N)c[nH]c3n2)cn1`, the ΔTm in [1] was determined as 15.2 °C. In [2], this compound returned a GI50 of 109 nM and a GI90 of more than 1000 nM.

Broadly, the AUC is the area under the concentration-time curve, a measure of exposure. Higher therefore signals more exposure. What is called IC50 is the concentration needed to halve the response being measured. The Cmax is the highest concentration seen after dosing. A word on the bioavailability: it is dose-corrected exposure relative to a reference, in per cent. Higher therefore signals much systemic uptake. As usually defined, the half-life is the time needed for the level to fall by half in the phase considered. Read a low half-life as fast loss. Take `COc1cc(C(=O)N2CCOCC2)ccc1Nc1nc(NC2CCCCC2)c2c(C#N)c[nH]c2n1`: in data set [1], the ΔTm stood at 16.1 °C. Besides, the remaining at 0.5 h in data set [3] turned out to be 56%. The exposure (AUC) in [4] worked out at 3770 ng·h/mL. Besides, the IC50 in data set [5] came to 3.2 nM. The compound also came in with a Cmax in data set [6] of 995 ng/mL. In data set [7], this compound showed a bioavailability of 98%. Moreover, in data set [2], halving of growth (GI50) required 3 nM and the GI90 is on record as 43 nM. Also, the half-life in data set [8] was 2.6 h.

Take `COc1cc(N2CCCC2=O)ccc1Nc1nc(NCC(C)C)c2c(C#N)c[nH]c2n1`: in data set [1], the ΔTm is 13.8 °C. In addition, in data set [2], the GI50 worked out at 20 nM and the GI90 amounted to 122 nM.

Consider `COc1cc(N2CCCC2=O)ccc1Nc1nc(NC2CCCCC2)c2c(C#N)c[nH]c2n1`, for which the Activity result in data set [9] was “Non-Toxic”; in [12], “Non-Toxic”; in data set [14], 7.6%. Also, the ΔTm in data set [1] was 18.3 °C. Moreover, the inhibition entry in [10] and in data set [13] was “Active” in each case. In addition, in data set [3], the remaining at 0.5 h is 60%. For the same compound, the inhibition in vivo at 2 mg/kg in data set [11] is 57%. Also, the AUC in data set [4] came to 6150 ng·h/mL. Further, the IC50 in data set [5] is 6.4 nM. The compound also had a Cmax in data set [6] of 2220 ng/mL. The bioavailability in data set [7] was determined as 61%. In data set [2], this compound displayed a GI50 of 11 nM. In [2], this compound yielded a GI90 of 37 nM. In [8], this compound gave a half-life of 1.1 h.

Take `COc1cc(N2CCCC2=O)ccc1Nc1nc(NC2CCCCC2)c2cc[nH]c2n1`: the ΔTm in data set [1] amounted to 15.3 °C. In data set [2], this compound displayed a GI50 of 55 nM and a GI90 of 380 nM.

With `Cc1cc(N2CCOCC2)ccc1Nc1nc(NC2CCCCC2)c2c(C#N)c[nH]c2n1`, in [1], the ΔTm was 19.9 °C. Further, the remaining at 0.5 h in [3] came to 57%. This compound displayed an AUC in [4] of 1270 ng·h/mL. In addition, the IC50 in data set [5] worked out at 6.3 nM. The Cmax in data set [6] came to 749 ng/mL. In data set [7], the bioavailability is 44%. In [2], this compound yielded a GI50 of 17 nM and a GI90 of 313 nM. In [8], this compound gave a half-life of 1.2 h.

For `CNc1nc(Nc2ccc(N3CCCC3=O)cc2OC)nc2[nH]cc(C#N)c12`, the ΔTm in data set [1] turned out to be 7.3 °C. In data set [2], this compound showed a GI50 of 637 nM and a GI90 of more than 1000 nM.

For the compound `COc1cc(N2CCCC2=O)ccc1Nc1nc(NCC2CCC2)c2c(C#N)c[nH]c2n1`, the thermal shift (ΔTm) in [1] stood at 15.2 °C. In addition, in data set [2], the GI50 is more than 1000 nM and the GI90 is recorded as more than 1000 nM.

For `COc1cc(N2CCCC2=O)ccc1Nc1nc(NCC2CCCC2)c2c(C#N)c[nH]c2n1`, the ΔTm in data set [1] came to 15.2 °C. For the same compound, in data set [2], the GI50 was determined as 171 nM and the GI90 is listed as more than 1000 nM.

On to `Cc1cc(N2CCOCC2)ccc1Nc1nc(NC2CCCCC2)c2c(C(F)(F)F)c[nH]c2n1`, for which the ΔTm in data set [1] came to 17.2 °C. Further, in data set [2], the 50% growth inhibitory concentration (GI50) was more than 1000 nM and the GI90 is more than 1000 nM.

As for `COc1cc(N2CCCC2=O)ccc1Nc1nc(NC2CCCCC2)c2c(C(F)(F)F)c[nH]c2n1`, the ΔTm in data set [1] worked out at 15.1 °C. In data set [2], this compound displayed a GI50 of 327 nM and a GI90 of more than 1000 nM.

Take `COc1cc(N2CCCC2=O)ccc1Nc1nc(NC2CCCC2)c2c(C#N)c[nH]c2n1`: the ΔTm in data set [1] is 17.1 °C. In data set [2], this compound gave a GI50 of 25 nM and a GI90 of 383 nM.

For `COc1cc(N2CCCC2=O)ccc1Nc1nc(NC2CCOCC2)c2c(C#N)c[nH]c2n1`, the ΔTm in [1] worked out at 14.8 °C. In addition, in data set [2], the GI50 is more than 1000 nM and the GI90 was more than 1000 nM.
